For one experiment, the system named is HeLa. The experiment can be described thus: Antiproliferative activity against human HeLa cells assessed as inhibition of culture growth incubated for 48 hrs by SRB assay. Type of experiment: functional. (In general: In SRB staining, fixed cells bind dye roughly in proportion to their protein.)
A further experiment has as its system SW1573. Kind of experiment: Antiproliferative activity against human SW1573 cells assessed as inhibition of culture growth incubated for 48 hrs by SRB assay. It counts as functional.
The test system of a further experiment is T47D. Kind of experiment: Antiproliferative activity against human T47D cells assessed as inhibition of culture growth incubated for 48 hrs by SRB assay. It counts as functional.
In the next experiment the test system is HBL-100. Kind of experiment: Antiproliferative activity against human HBL-100 cells assessed as inhibition of culture growth incubated for 48 hrs by SRB assay. It counts as functional.
The test system of the next experiment is A549. Kind of experiment: Antiproliferative activity against human A549 cells assessed as inhibition of culture growth incubated for 48 hrs by SRB assay. Type of experiment: functional.
Experiment [1] concerns NCI-H1299. The experiment can be described thus: Antimigratory activity against human H1299 cells assessed as reduction in cell migration at 50 uM incubated for 24 hrs by wound healing assay. Type of experiment: functional, cell-based.
The subject of experiment [2] is NCI-H1299. Kind of experiment: Anti-invasive activity in human H1299 cells assessed as reduction in cell invasion at 50 uM incubated for 24 hrs by transwell migration assay. It counts as functional, cell-based.
Experiment [3] has as its system NCI-H1299. The experiment can be described thus: Antiproliferative activity against human H1299 cells assessed as inhibition of culture growth incubated for 48 hrs by SRB assay. Type of experiment: functional.
For the next experiment, the system named is Plasmodium falciparum. The experiment can be described thus: Antimalarial activity against Plasmodium falciparum assessed as inhibition of parasite growth measured after 72 hrs by NLuc method. Type of experiment: functional, organism-based.

Active and inactive are the calls of the source. No cut-off for these calls is given here.

`CC[C@@]1(O)C(=O)OCc2c1cc1n(c2=O)Cc2cc3ccccc3nc2-1` [CAMPTOTHECIN]: the GI50 (usually the concentration that inhibits growth by half) in the experiment with HeLa came to 0.6 µM; in the experiment with SW1573, 0.3 µM; in the experiment on T47D, 2 µM; in the experiment with HBL-100, 0.2 µM.

Consider `CC(C)=CCC/C(C)=C/CC/C(C)=C/CC/C(C)=C/CSc1ccccc1C(=O)O`, for which the GI50 in the experiment with A549 worked out at 38 µM; in the experiment on HeLa, 29 µM; with SW1573 it was 37 µM; in the experiment on T47D it was 41 µM; with HBL-100 it was 23 µM.

With `COc1cc([C@@H]2c3cc4c(cc3[C@@H](O[C@@H]3O[C@@H]5CO[C@@H](C)O[C@H]5[C@H](O)[C@H]3O)[C@H]3COC(=O)[C@H]23)OCO4)cc(OC)c1O` [ETOPOSIDE], the GI50 in the experiment with A549 was found to be 1.5 µM; in the experiment on HeLa, 3.3 µM; in the experiment on SW1573, 14 µM; in the experiment on T47D, 22 µM; with HBL-100 it was 1.4 µM.

Regarding `CCCCCCCCSc1ccccc1C(=O)O`, the outcome with NCI-H1299 [1] and in the experiment with NCI-H1299 [2] was Active.

For the compound `CC(C)=CCC/C(C)=C/Cn1cc(CSc2ccccc2C(=O)O)nn1`, the outcome in the experiment with NCI-H1299 [1] was inactive.

In the case of `CCCCCCCCCCSc1ccccc1C(=O)O`, in the experiment on NCI-H1299 [1], the outcome was Active. Further, in the experiment on NCI-H1299 [2], the result was inactive.

Consider `CC(C)=CCC/C(C)=C/CC/C(C)=C/CSc1ccccc1C(=O)O` [SALIRASIB], for which the GI50 in the experiment on A549 was determined as 34 µM; in the experiment on HeLa, 34 µM; in the experiment on SW1573, 41 µM; with T47D it was 42 µM; with HBL-100 it was 22 µM; in the experiment with NCI-H1299 [3], 85 µM.

Take `CCCCCCCCCCCCCCCCn1cc(CSc2ccccc2C(=O)O)nn1`: the GI50 in the experiment on A549 was determined as 9.2 µM; in the experiment with HeLa, 6.9 µM; in the experiment with SW1573 it was 9.3 µM; in the experiment with T47D, 20 µM; in the experiment with HBL-100 it was 14 µM; with NCI-H1299 [3] it was 27 µM.

As for `C/C(=C\CSc1ccccc1C(=O)O)CCCC(C)CCCC(C)CCCC(C)C` (centres undefined), the GI50 is 14 µM in the experiment on A549; 12 µM with HeLa; 15 µM in the experiment on SW1573; 18 µM in the experiment with T47D; 14 µM in the experiment with HBL-100; over 100 µM in the experiment with NCI-H1299 [3].

For `CCCCCCCCn1cc(CSc2ccccc2C(=O)O)nn1`, the GI50 with A549 is 61 µM; with HeLa, 39 µM; in the experiment on SW1573 it was 47 µM; in the experiment with T47D it was 93 µM; with HBL-100 it was 40 µM; in the experiment on NCI-H1299 [3], over 100 µM. For the same compound, in the experiment with NCI-H1299 [1], the outcome was inactive.

`CC(C)=CCC/C(C)=C/CC/C(C)=C/Cn1cc(CSc2ccccc2C(=O)O)nn1`: the GI50 with A549 worked out at 40 µM; with HeLa, 33 µM; in the experiment on SW1573, 40 µM; in the experiment with T47D, 52 µM; in the experiment on HBL-100, 33 µM; in the experiment with NCI-H1299 [3], 102 µM.

On to `CC(C)=CCC/C(C)=C/CSc1ccccc1C(=O)O`, for which the outcome in the experiment with NCI-H1299 [1] and in the experiment with NCI-H1299 [2] was Active.

For `C/C(=C\Cn1cc(CSc2ccccc2C(=O)O)nn1)CCC[C@H](C)CCC[C@H](C)CCCC(C)C`, the IC50 (commonly the midpoint of a concentration-inhibition curve) in the experiment on Plasmodium falciparum came out at 9.75 µM. Besides, the GI50 with A549 was 5.4 µM; in the experiment on HeLa, 4.3 µM; with SW1573 it was 5.8 µM; with T47D, 9.6 µM; in the experiment on HBL-100, 10 µM; in the experiment on NCI-H1299 [3] it was 59 µM.

The record behind these values is ChEMBL document CHEMBL5325490, “Lipophilic modification of salirasib modulates the antiproliferative and antimigratory activity” (Bioorg Med Chem, 2023).
